Data published in US11344523B2, “Composition for use in treating rotavirus infection” (Devenish Nutrition Limited, priority 2016, dated 2022).

Tests used:
[1] = tested on: Porcine Rotavirus; experiment: Virucidal effect on porcine rotavirus in primary pig kidney cells; assay type: cell-based; settings: total carboxylic acid concentration of 200 mM; for Result Replicate 2: controls PBS −5, ETHANOL −4; for Result Replicate 3: controls PBS −5, ETHANOL −5
Method: (§1) Carboxylic acids were obtained from David Garnett of Pathway Intermediates Ltd or from Sigma-Aldrich Co. LLC; and compositions were prepared in a Class II cabinet at room temperature in Hank's Balanced Salt Solution (Thermo Fisher Scientific Inc.) or ethanol by vortexing strongly to emulsify at a stock concentration of 1M. Stock concentrations were diluted to working concentrations e.g. of […] by serial dilution using Minimum Essential Medium (MEM) cell culture medium (Thermo Fisher Scientific Inc.) containing 2 mM L-Glutamine (Gibco Life Technologies Ltd.), and 100 μg/500 ml gentamycin (Lonza Group Ltd.).
A primary pig kidney (PPK) cell line was sourced from a kidney of a sacrificed piglet from the Agri-Food and Biosciences Institute (AFBI Hillsborough, UK). The kidney tissue was trypsinised to create a PPK cell line, which was maintained in Minimum Essential Medium (MEM) cell culture medium (Thermo Fisher Scientific Inc.) containing 2 mM L-Glutamine (Gibco Life Technologies Ltd.), 10% foetal calf serum (PAN-Biotech GmbH), and 100 μg/500 ml gentamycin (Lonza Group Ltd.).
(§2) In general, cells were seeded as at a density of 0.313e4-5.000e4 cells per 1 ml of cell suspension in growth medium, dispensed in to a SPL 24-Well Cell Culture Plate (SPL Life Sciences Co., Ltd.) in replicates of 3, each containing Academy Circular Cover Slips (Academy Science) and incubated overnight at 37° C. at 5% CO2. The growth medium was removed and replaced with 1 ml of Minimum Essential Medium (MEM) cell culture medium (Thermo Fisher Scientific Inc.) containing 2 mM L-Glutamine (Gibco Life Technologies Ltd.), and 100 μg/500 ml gentamycin (Lonza Group Ltd.) for treatment.
(§3) Porcine rotavirus was PROSYSTEM® ROTA PORCINE ROTAVIRUS VACCINE (Merck Animal Health).
Prior to treatment, the cells and coverslips were washed three times with Minimum Essential Medium (MEM) cell culture medium (Thermo Fisher Scientific Inc.) containing 2 mM L-Glutamine (Gibco Life Technologies Ltd.), and 100 μg/500 ml gentamycin (Lonza Group Ltd.). 100 μl of the virus at a titre of 10^9 TCID50/100 μl by the Reed-Muench method, and 100 μl of the treatment samples, were incubated for 30 mins at 37° C. at 5% CO2 The reaction was stopped by adding 800 μl of Minimum Essential Medium (MEM) cell culture medium (Thermo Fisher Scientific Inc.) containing 2 mM L-Glutamine (Gibco Life Technologies Ltd.), and 100 μg/500 ml gentamycin (Lonza Group Ltd.). Each treatment/virus was titrated out, initially 100 μl of each treatment was added to 900 μls of Minimum Essential Medium (MEM) cell culture medium (Thermo Fisher Scientific Inc.) containing 2 mM L-Glutamine (Gibco Life Technologies Ltd.), and 100 μg/500 ml gentamycin (Lonza Group Ltd.) to prepare a 10^−1 dilution. The 10^−1 dilution was then diluted in serial dilutions down to 10^−6 in the same medium 100 μl of media was then added to each appropriate well in replicates of 3 and incubated for 36 hours at 37° C. at 5% CO2 Ethanol or PBS were used as control treatments. Untreated cells were used as negative controls.
After incubation, coverslips were harvested. Each slip was harvested by lifting out of the medium with forceps then rinsing and fixing by dipping sequentially into glass universal bottles of PBS, acetone, and lastly acetone. The slip was then placed cells side up in a glass Petri dish of acetone in a Class II cabinet at room temperature for 10 minutes. […]

[2] = tested on: infectious bovine rhinotracheitis virus (IBRV); experiment: Virucidal effect on IBRV, virus/treatment titration read by immunofluorescence; assay type: cell-based, Infectious bovine rhinotracheitis virus (Bovine Herpes 1); settings: 100 mM
Method: as §1
MDBK cells were obtained from ECACC and were maintained in Minimum Essential Medium (MEM) cell culture medium (Thermo Fisher Scientific Inc.) containing 2 mM L-Glutamine (Gibco Life Technologies Ltd.), 10% foetal calf serum (PAN-Biotech GmbH), 100 μg/500 ml gentamycin (Lonza Group Ltd.), and 1% essential non essential amino acids (Sigma-Aldrich Co. LLC.).
(§4) In general, cells were seeded as at a density of 0.313e4-5.000e4 cells per 1 ml of cell suspension in growth medium, dispensed in to a SPL 24-Well Cell Culture Plate (SPL Life Sciences Co., Ltd.) in replicates of 3, each containing Academy Circular Cover Slips (Academy Science) and incubated overnight at 37° C. at 5% CO2. […]

[3] = tested on: Porcine Rotavirus; experiment: Virucidal effect on porcine rotavirus in MA104 cells; assay type: cell-based; settings: for Titre: incubation 30 mins, DMSO ✓, control titres ETOH −4, PBS −4
Method: as §1
(§5) MA104 cells were obtained from ECACC and were maintained in Minimum Essential Medium (MEM) cell culture medium (Thermo Fisher Scientific Inc.) containing 2 mM L-Glutamine (Gibco Life Technologies Ltd.), 10% foetal calf serum (PAN-Biotech GmbH), and 100 μg/500 ml gentamycin (Lonza Group Ltd.).
as §2, §3
Prior to treatment, the cells and coverslips were washed three times with Minimum Essential Medium (MEM) cell culture medium (Thermo Fisher Scientific Inc.) containing 2 mM L-Glutamine (Gibco Life Technologies Ltd.), and 100 μg/500 ml gentamycin (Lonza Group Ltd.). […]

[4] = tested on: porcine circovirus (PCV2); experiment: Virucidal effect on PCV2 in PK15A cells; assay type: cell-based, Porcine circovirus type 2; settings: at either 100 or 200 mM
[5] = tested on: Porcine Respiratory and Reproductive Syndrome Virus (PRRSV); experiment: Virucidal effect on PRRSV, virus/treatment titration read by immunofluorescence; assay type: cell-based; settings: 200 mM
Method: as §1
as §5, with “MARC145” for “MA104”, “the Centre of Cell Cultures, Istituto Zooprofilattico Sperimentale Brescia, Italy” for “ECACC”
as §4

SMILES | Result Replicate 2 [1] | Result Replicate 3 [1] | reduction in titre [2] [log10] | reduction in titre ([3]; 200 mM) [log 10] | Titre ([3]; Expt 1, FA conc 100 mM) | Titre ([3]; Expt 2, FA conc 200 mM) | susceptibility of virus to treatment [4] | reduction in titre [5] [log10]
CCCCCCCCCCCC(=O)O [Dodecanoic acid/Lauric C12 (1M), Dodecanoic acid] | −ve | −1 |  |  |  |  |  | 
CCCCCCCC(=O)O [Octanonic Acid/Caprylic C8 (1M), octanoic acid] | −2 | −1 |  |  |  |  |  | 
CCCCCCCCCC(=O)O [Decanoic Acid/Capric C10 (1M), Decanoic Acid] | −1 | −ve |  |  |  |  |  | 
CCCC(=O)[O-].[Na+] [Treatment A, Sodium butyrate] |  |  | 4 | 2 | −4 | −2 | not susceptible | 3.5
CCCC(=O)O [Butyric Acid C4 (1M), Butyric Acid] | −ve | −ve |  |  |  |  |  | 
